The test system of the assay is lipid membranes on porous silica beads packed in microcolumn. In words: Microfluidic study: release of dye from a bead packed microcolumn after TRITON X-100 injection. The class given is biochemical. To be noted: 10 μL of 10% TRITON X-100 injected, 5 min no flow. On the procedure:
To create a packed microcolumn of lipid coated beads containing fluorescein, 2 μL of silica bead (diameter=20 μm) containing suspension (0.05 mg/μL) was injected into a microfluidic channel by applying vacuum at the outlet port of the microchannel, followed by the injection of 10 μL of fluorescein-entrapped bead (diameter=10 μm) containing suspension (0.05 mg/μL). The bead packed microchannel was mounted onto a vertical translational stage located in the sample holder space of the fluorimeter. Just below the bead segment, the microchannel was irradiated with an Argon ion laser (λ=488 nm, 8-10 mW) excitation. The inlet of the column was connected to a buffer reservoir while the outlet was connected to a vacuum source. As the fluorescence intensity at 520 nm was monitored, several microliters of Tris buffer was passed through the microchannel before the injection of TRITON X-100 detergent. […]
The packed segment was about 2 mm long. The disruption of the membranes on porous silica beads (containing fluorescein dye) by TRITON X-100 detergent was detected by monitoring the release of the dye from the beads, at a point just below the bead segment as indicated in FIG. 7B. […] The microcolumn was irradiated at 488 nm and fluorescence intensity was monitored at 520 nm. […]

Regarding TRITON X-100, the “initial signal (1st peak) less than that observed in suspension studies” value was roughly 80%.

(Values after patent publication US8465983B1, “Detection and delivery systems utilizing supported lipid bilayers” (priority 2005, dated 2013).)
